The record followed here is the NIST ThermoML archive (doi:10.1016/j.fluid.2009.10.015).

SMILES strings stand for the structures. Numbers after ± are expanded uncertainties.

The conditions of data set [1]: Crystal; DTA.
A short description of data set [2]: Molar enthalpy of transition or fusion. Conditions: Crystal; DSC.

`CC(=O)c1ccc(C)c2ccccc12` [1-(4-methyl-1-naphthyl) ethanone]: the Normal melting temperature in data set [1] turned out to be 312.00 ± 4 °C. In data set [2], the “Molar enthalpy of transition or fusion” value turned out to be 3.47 ± 0.112 kcal/mol.
